In ChEMBL document CHEMBL3045851, “Design, synthesis, and in vitro antimicrobial activities of novel azetidinyl-3-quinazolin-4-one hybrids” (2012):
Converted amounts (≈) assume the structure as drawn.

How the values were obtained:
Type in all cases: functional
Streptococcus pyogenes = experiment: Antibacterial activity against Streptococcus pyogenes MTCC 442 after overnight incubation by broth dilution method
Escherichia coli = experiment: Antibacterial activity against Escherichia coli MTCC 443 after overnight incubation by broth dilution method
Pseudomonas aeruginosa = experiment: Antibacterial activity against Pseudomonas aeruginosa MTCC 1688 after overnight incubation by broth dilution method
Salmonella typhimurium = experiment: Antibacterial activity against Salmonella enterica subsp. enterica serovar Typhimurium MTCC 98 after overnight incubation by broth dilution method
Klebsiella pneumoniae = experiment: Antibacterial activity against Klebsiella pneumoniae MTCC 109 after overnight incubation by broth dilution method
Staphylococcus aureus = experiment: Antibacterial activity against Staphylococcus aureus MTCC 96 after overnight incubation by broth dilution method
Aspergillus niger = experiment: Antifungal activity against Aspergillus niger MTCC 282 by broth microdilution method
Bacillus subtilis = experiment: Antibacterial activity against Bacillus subtilis MTCC 441 after overnight incubation by broth dilution method
Candida albicans = experiment: Antifungal activity against Candida albicans MTCC 227 by broth microdilution method
[1] = test system: Mycobacterium tuberculosis; experiment: Growth inhibition of Mycobacterium tuberculosis H37Rv MTCC 200 at 100 ug/ml after 28 days by Lowenstein-Jensen method; conditions: H37Rv MTCC 200, 672 h, read-out: GI
Aspergillus clavatus = experiment: Antifungal activity against Aspergillus clavatus MTCC 1323 by broth microdilution method
[2] = test system: Mycobacterium tuberculosis; experiment: Growth inhibition of Mycobacterium tuberculosis H37Rv MTCC 200 at 250 ug/ml after 28 days by Lowenstein-Jensen method; conditions: H37Rv MTCC 200, 672 h, read-out: GI
[3] = test system: Mycobacterium tuberculosis; experiment: Growth inhibition of Mycobacterium tuberculosis H37Rv MTCC 200 at 500 ug/ml after 28 days by Lowenstein-Jensen method; conditions: H37Rv MTCC 200, 672 h, read-out: GI
[4] = test system: Mycobacterium tuberculosis; experiment: Growth inhibition of Mycobacterium tuberculosis H37Rv MTCC 200 at 0.2 ug/ml after 28 days by Lowenstein-Jensen method; conditions: H37Rv MTCC 200, 672 h, read-out: GI
[5] = test system: Mycobacterium tuberculosis; experiment: Growth inhibition of Mycobacterium tuberculosis H37Rv MTCC 200 at 50 ug/ml after 28 days by Lowenstein-Jensen method; conditions: H37Rv MTCC 200, 672 h, read-out: GI

| Structure (SMILES) | MIC99 (Streptococcus pyogenes) [µg/mL] | MIC99 (Escherichia coli) [µg/mL] | MIC99 (Pseudomonas aeruginosa) [µg/mL] | MIC99 (Salmonella typhimurium) [µg/mL] | MIC99 (Klebsiella pneumoniae) [µg/mL] | MIC99 (Staphylococcus aureus) [µg/mL] | MIC99 (Aspergillus niger) [µg/mL] | MIC99 (Bacillus subtilis) [µg/mL] | MIC99 (Candida albicans) [µg/mL] | inhibition of growth at 100 µg/mL [1] [%] | MIC99 (Aspergillus clavatus) [µg/mL] | inhibition of growth at 250 µg/mL [2] [%] | inhibition of growth at 500 µg/mL [3] [%] | inhibition of growth at 0.2 µg/mL [4] [%] | inhibition of growth at 50 µg/mL [5] [%] |
| --- | --- | --- | --- | --- | --- | --- | --- | --- | --- | --- | --- | --- | --- | --- | --- |
| CCn1cc(C(=O)O)c(=O)c2cc(F)c(N3CCNCC3)cc21 [NORFLOXACIN] | 10 (≈ 31.3 µM) | 10 (≈ 31.3 µM) | 10 (≈ 31.3 µM) | 10 (≈ 31.3 µM) | 10 (≈ 31.3 µM) | 10 (≈ 31.3 µM) | – | – | – | – | – | – | – | – | – |
| O=C(Nn1c(CNN2C(=O)C(Cl)C2c2ccccc2[N+](=O)[O-])nc2ccccc2c1=O)c1ccncc1 (stereo unspecified) | 250 (≈ 481 µM) | 100 (≈ 192 µM) | 200 (≈ 385 µM) | 250 (≈ 481 µM) | 250 (≈ 481 µM) | 200 (≈ 385 µM) | 500 (≈ 962 µM) | 250 (≈ 481 µM) | 1000 (≈ 1920 µM) | 99 | 500 (≈ 962 µM) | – | – | – | – |
| O=C(Nn1c(CNN2C(=O)C(Cl)C2c2ccccc2O)nc2ccccc2c1=O)c1ccncc1 (stereo unspecified) | 250 (≈ 509 µM) | 100 (≈ 204 µM) | 125 (≈ 255 µM) | 125 (≈ 255 µM) | 250 (≈ 509 µM) | 250 (≈ 509 µM) | 1000 (≈ 2040 µM) | 250 (≈ 509 µM) | 250 (≈ 509 µM) | – | 1000 (≈ 2040 µM) | 97 | – | – | – |
| CCc1ccc(C2C(Cl)C(=O)N2NCc2nc3ccccc3c(=O)n2NC(=O)c2ccncc2)cc1 (stereo unspecified) | 250 (≈ 497 µM) | 200 (≈ 398 µM) | 500 (≈ 994 µM) | 125 (≈ 249 µM) | 250 (≈ 497 µM) | 200 (≈ 398 µM) | > 1000 | 100 (≈ 199 µM) | 1000 (≈ 1990 µM) | – | > 1000 | – | 97 | – | – |
| O=C(O)c1cn(C2CC2)c2cc(N3CCNCC3)c(F)cc2c1=O [CIPROFLOXACIN] | 50 (≈ 151 µM) | 25 (≈ 75.4 µM) | 25 (≈ 75.4 µM) | 25 (≈ 75.4 µM) | 25 (≈ 75.4 µM) | 50 (≈ 151 µM) | – | – | – | – | – | – | – | – | – |
| O=C(Nn1c(CNN2C(=O)C(Cl)C2c2ccc(O)cc2)nc2ccccc2c1=O)c1ccncc1 (stereo unspecified) | 250 (≈ 509 µM) | 250 (≈ 509 µM) | 250 (≈ 509 µM) | 250 (≈ 509 µM) | 250 (≈ 509 µM) | 200 (≈ 407 µM) | > 1000 | 250 (≈ 509 µM) | 500 (≈ 1020 µM) | – | > 1000 | 97 | – | – | – |
| O=C(Nn1c(CNN2C(=O)C(Cl)C2c2ccc(Br)cc2)nc2ccccc2c1=O)c1ccncc1 (stereo unspecified) | 200 (≈ 361 µM) | 62.5 (≈ 113 µM) | 200 (≈ 361 µM) | 100 (≈ 181 µM) | 500 (≈ 903 µM) | 200 (≈ 361 µM) | 1000 (≈ 1810 µM) | 200 (≈ 361 µM) | 500 (≈ 903 µM) | 97 | 500 (≈ 903 µM) | – | – | – | – |
| O=C(Nn1c(CNN2C(=O)C(Cl)C2c2ccccc2Cl)nc2ccccc2c1=O)c1ccncc1 (stereo unspecified) | 500 (≈ 982 µM) | 250 (≈ 491 µM) | 250 (≈ 491 µM) | 500 (≈ 982 µM) | 100 (≈ 196 µM) | 500 (≈ 982 µM) | 200 (≈ 393 µM) | 500 (≈ 982 µM) | 200 (≈ 393 µM) | – | 250 (≈ 491 µM) | – | 98 | – | – |
| CC1(C)S[C@@H]2[C@H](NC(=O)[C@H](N)c3ccccc3)C(=O)N2[C@H]1C(=O)O [AMPICILLIN] | 100 (≈ 286 µM) | 100 (≈ 286 µM) | 100 (≈ 286 µM) | 100 (≈ 286 µM) | 100 (≈ 286 µM) | 250 (≈ 715 µM) | – | – | – | – | – | – | – | 99 | – |
| O=C(Nn1c(CNN2C(=O)C(Cl)C2c2ccc([N+](=O)[O-])cc2)nc2ccccc2c1=O)c1ccncc1 (stereo unspecified) | 125 (≈ 240 µM) | 150 (≈ 289 µM) | 150 (≈ 289 µM) | 200 (≈ 385 µM) | 200 (≈ 385 µM) | 100 (≈ 192 µM) | > 1000 | 100 (≈ 192 µM) | 500 (≈ 962 µM) | – | > 1000 | – | – | – | 99 |
